Measured values from patent US5530126A, “Process for the preparation of substituted 6-(pyrazol-3yl)-1,4-benzoxazin-3-ones” (Monsanto Company, priority 1994, dated 1996).

Tests used:
Assay type in all cases: in vivo
Wild buckwheat [1] = assay: Post-emergence herbicide test; conditions: Fallopia convolvulus, read-out: % plant inhibition (Wibw); for inhibition at 1120 g/ha: 1.12 kg/ha; for inhibition at 11210 g/ha: 11.21 kg/ha
Method in brief: (§1)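 Greenhouse-raised seedlings and perennial propagule shoots, aged 2–3 weeks, receive an atomized spray at 10 psig. The solution or suspension carries roughly 0.4% emulsifier and is applied at 200 gallons/acre; injury is rated as % inhibition after about 11 days.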

Cocklebur [2] = assay: Post-emergence herbicide test; conditions: Xanthium strumarium, read-out: % plant inhibition (Cobu); for inhibition at 1120 g/ha: 1.12 kg/ha; for inhibition at 11210 g/ha: 11.21 kg/ha
Method in brief: as §1

Yellow nutsedge [3] = assay: Post-emergence herbicide test; conditions: Cyperus, read-out: % plant inhibition (Yens); for inhibition at 1120 g/ha: 1.12 kg/ha; for inhibition at 11210 g/ha: 11.21 kg/ha
Method in brief: as §1

Velvetleaf [4] = assay: Post-emergence herbicide test; conditions: Abutilon theophrasti, read-out: % plant inhibition (Vele); for inhibition at 1120 g/ha: 1.12 kg/ha; for inhibition at 11210 g/ha: 11.21 kg/ha
Method in brief: as §1

Indian Mustard [5] = assay: Post-emergence herbicide test; conditions: Brassica juncea, read-out: % plant inhibition (Inmu); for inhibition at 1120 g/ha: 1.12 kg/ha; for inhibition at 11210 g/ha: 11.21 kg/ha
Method in brief: as §1

Downy Brome [6] = assay: Post-emergence herbicide test; conditions: Bromus tectorum, read-out: % plant inhibition (Dobr); for inhibition at 1120 g/ha: 1.12 kg/ha; for inhibition at 11210 g/ha: 11.21 kg/ha
Method in brief: as §1

Annual bluegrass [7] = assay: Post-emergence herbicide test; conditions: read-out: % plant inhibition (Anbg); for inhibition at 1120 g/ha: 1.12 kg/ha; for inhibition at 11210 g/ha: 11.21 kg/ha
Method in brief: as §1

Morningglory [8] = assay: Post-emergence herbicide test; conditions: Ipomoea, read-out: % plant inhibition (Mogl); for inhibition at 1120 g/ha: 1.12 kg/ha; for inhibition at 11210 g/ha: 11.21 kg/ha
Method in brief: as §1

Barnyardgrass [9] = assay: Post-emergence herbicide test; conditions: Echinochloa crus-galli, read-out: % plant inhibition (Bygr); for inhibition at 1120 g/ha: 1.12 kg/ha; for inhibition at 11210 g/ha: 11.21 kg/ha
Method in brief: as §1

Seedling johnsongrass [10] = assay: Post-emergence herbicide test; conditions: Sorghum halepense, read-out: % plant inhibition (Sejg); for inhibition at 1120 g/ha: 1.12 kg/ha; for inhibition at 11210 g/ha: 11.21 kg/ha
Method in brief: as §1

Wild buckwheat [11] = assay: Pre-emergence herbicide test; conditions: Fallopia convolvulus, read-out: % plant inhibition (Wibw); for inhibition at 1120 g/ha: 1.12 kg/ha; for inhibition at 11210 g/ha: 11.21 kg/ha
Method in brief: (§2)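 Seeds or perennial propagules sown on compacted topsoil in pans; known amount of active ingredient in organic solvent (e.g., acetone) or water applied directly to seed bed, then covered with untreated topsoil. Greenhouse, bottom-watered; % inhibition scored about 10-14 days (usually 11 days) after seeding.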

Cocklebur [12] = assay: Pre-emergence herbicide test; conditions: Xanthium strumarium, read-out: % plant inhibition (Cobu); for inhibition at 1120 g/ha: 1.12 kg/ha; for inhibition at 11210 g/ha: 11.21 kg/ha
Method in brief: as §2

Yellow nutsedge [13] = assay: Pre-emergence herbicide test; conditions: Cyperus, read-out: % plant inhibition (Yens); for inhibition at 1120 g/ha: 1.12 kg/ha; for inhibition at 11210 g/ha: 11.21 kg/ha
Method in brief: as §2

Velvetleaf [14] = assay: Pre-emergence herbicide test; conditions: Abutilon theophrasti, read-out: % plant inhibition (Vele); for inhibition at 1120 g/ha: 1.12 kg/ha; for inhibition at 11210 g/ha: 11.21 kg/ha
Method in brief: as §2

Indian Mustard [15] = assay: Pre-emergence herbicide test; conditions: Brassica juncea, read-out: % plant inhibition (Inmu); for inhibition at 1120 g/ha: 1.12 kg/ha; for inhibition at 11210 g/ha: 11.21 kg/ha
Method in brief: as §2

Downy Brome [16] = assay: Pre-emergence herbicide test; conditions: Bromus tectorum, read-out: % plant inhibition (Dobr); for inhibition at 1120 g/ha: 1.12 kg/ha; for inhibition at 11210 g/ha: 11.21 kg/ha
Method in brief: as §2

Annual bluegrass [17] = assay: Pre-emergence herbicide test; conditions: read-out: % plant inhibition (Anbg); for inhibition at 1120 g/ha: 1.12 kg/ha; for inhibition at 11210 g/ha: 11.21 kg/ha
Method in brief: as §2

Morningglory [18] = assay: Pre-emergence herbicide test; conditions: Ipomoea, read-out: % plant inhibition (Mogl); for inhibition at 1120 g/ha: 1.12 kg/ha; for inhibition at 11210 g/ha: 11.21 kg/ha
Method in brief: as §2

Barnyardgrass [19] = assay: Pre-emergence herbicide test; conditions: Echinochloa crus-galli, read-out: % plant inhibition (Bygr); for inhibition at 1120 g/ha: 1.12 kg/ha; for inhibition at 11210 g/ha: 11.21 kg/ha
Method in brief: as §2

Seedling johnsongrass [20] = assay: Pre-emergence herbicide test; conditions: Sorghum halepense, read-out: % plant inhibition (Sejg); for inhibition at 1120 g/ha: 1.12 kg/ha; for inhibition at 11210 g/ha: 11.21 kg/ha
Method in brief: as §2

Compound | inhibition at 1120 g/ha (Wild buckwheat [1]) [%] | inhibition at 1120 g/ha (Cocklebur [2]) [%] | inhibition at 1120 g/ha (Yellow nutsedge [3]) [%] | inhibition at 1120 g/ha (Velvetleaf [4]) [%] | inhibition at 1120 g/ha (Indian Mustard [5]) [%] | inhibition at 1120 g/ha (Downy Brome [6]) [%] | inhibition at 1120 g/ha (Annual bluegrass [7]) [%] | inhibition at 1120 g/ha (Morningglory [8]) [%] | inhibition at 1120 g/ha (Barnyardgrass [9]) [%] | inhibition at 1120 g/ha (Seedling johnsongrass [10]) [%] | inhibition at 1120 g/ha (Wild buckwheat [11]) [%] | inhibition at 1120 g/ha (Cocklebur [12]) [%] | inhibition at 1120 g/ha (Yellow nutsedge [13]) [%] | inhibition at 1120 g/ha (Velvetleaf [14]) [%] | inhibition at 1120 g/ha (Indian Mustard [15]) [%] | inhibition at 1120 g/ha (Downy Brome [16]) [%] | inhibition at 1120 g/ha (Annual bluegrass [17]) [%] | inhibition at 1120 g/ha (Morningglory [18]) [%] | inhibition at 1120 g/ha (Barnyardgrass [19]) [%] | inhibition at 1120 g/ha (Seedling johnsongrass [20]) [%] | other results
CCOC(=O)CON=Cc1cc(-c2nn(C)c(C(F)(F)F)c2Cl)c(F)cc1Cl [Compound 129] | 100 | 100 | 30 | 100 | 90 | 80 | 40 | 90 | 80 | 90 | 100 | 90 | 0 | 100 | 90 | 40 | 0 | 100 | 20 | 60 | –
COc1cc(-c2c(Cl)c(C(F)(F)F)nn2C)c(F)cc1[N+](=O)[O-] [Compound 72] | – | – | – | – | – | – | – | – | – | – | – | – | – | – | – | – | – | – | – | – | inhibition at 11210 g/ha (Wild buckwheat [1]): 90%; inhibition at 11210 g/ha (Cocklebur [2]): 60%; inhibition at 11210 g/ha (Yellow nutsedge [3]): 10%; inhibition at 11210 g/ha (Velvetleaf [4]): 90%; inhibition at 11210 g/ha (Indian Mustard [5]): 30%; inhibition at 11210 g/ha (Downy Brome [6]): 20%; inhibition at 11210 g/ha (Annual bluegrass [7]): 10%; inhibition at 11210 g/ha (Morningglory [8]): 30%; inhibition at 11210 g/ha (Barnyardgrass [9]): 50%; inhibition at 11210 g/ha (Seedling johnsongrass [10]): 10%; inhibition at 11210 g/ha (Wild buckwheat [11]): 90%; inhibition at 11210 g/ha (Cocklebur [12]): 20%; inhibition at 11210 g/ha (Yellow nutsedge [13]): 0%; inhibition at 11210 g/ha (Velvetleaf [14]): 90%; inhibition at 11210 g/ha (Indian Mustard [15]): 90%; inhibition at 11210 g/ha (Downy Brome [16]): 20%; inhibition at 11210 g/ha (Annual bluegrass [17]): 20%; inhibition at 11210 g/ha (Morningglory [18]): 40%; inhibition at 11210 g/ha (Barnyardgrass [19]): 60%; inhibition at 11210 g/ha (Seedling johnsongrass [20]): 60%
Cn1nc(-c2cc([N+](=O)[O-])c(Cl)cc2Cl)c(Cl)c1C(F)(F)F [Compound 86] | – | – | – | – | – | – | – | – | – | – | – | – | – | – | – | – | – | – | – | – | inhibition at 11210 g/ha (Wild buckwheat [1]): 100%; inhibition at 11210 g/ha (Cocklebur [2]): 70%; inhibition at 11210 g/ha (Yellow nutsedge [3]): 10%; inhibition at 11210 g/ha (Velvetleaf [4]): 100%; inhibition at 11210 g/ha (Indian Mustard [5]): 60%; inhibition at 11210 g/ha (Downy Brome [6]): 0%; inhibition at 11210 g/ha (Annual bluegrass [7]): 30%; inhibition at 11210 g/ha (Morningglory [8]): 100%; inhibition at 11210 g/ha (Barnyardgrass [9]): 80%; inhibition at 11210 g/ha (Seedling johnsongrass [10]): 80%; inhibition at 11210 g/ha (Wild buckwheat [11]): 100%; inhibition at 11210 g/ha (Cocklebur [12]): 10%; inhibition at 11210 g/ha (Yellow nutsedge [13]): 0%; inhibition at 11210 g/ha (Velvetleaf [14]): 90%; inhibition at 11210 g/ha (Indian Mustard [15]): 30%; inhibition at 11210 g/ha (Downy Brome [16]): 0%; inhibition at 11210 g/ha (Annual bluegrass [17]): 0%; inhibition at 11210 g/ha (Morningglory [18]): 20%; inhibition at 11210 g/ha (Barnyardgrass [19]): 0%; inhibition at 11210 g/ha (Seedling johnsongrass [20]): 0%
COCCOc1cc(-c2nn(C)c(C(F)(F)F)c2Cl)c(F)cc1Cl [Compound 270, 4-Chloro-3-(4-chloro-2-fluoro-5-(methoxyethoxy)phenyl)-1-methyl-5-(trifluoromethyl)-1H-pyrazole] | 100 | 90 | 60 | 100 | 90 | 100 | 90 | 100 | 100 | 90 | 100 | 60 | 30 | 100 | 100 | 100 | 70 | 100 | 90 | 70 | –
CC(C#N)c1cc(-c2nn(C)c(C(F)(F)F)c2Cl)c(F)cc1Cl (stereo not shown) [Compound 106] | 90 | 60 | 10 | 100 | 60 | 20 | 30 | 100 | 60 | 40 | 100 | 20 | 0 | 80 | 90 | 80 | 30 | 60 | 80 | 80 | –
